Data as given in publication PMC3268748, “A novel cold-active β-D-galactosidase from the Paracoccus sp. 32d - gene cloning, purification and characterization” (Microbial Cell Factories, 2011).
Read-outs that look alike come from different tables or passages of the source.

Molecular target: T1, BgaL; Paracoccus sp. 32d β-D-galactosidase (Paracoccus sp. 32d, UniProt D1LZK0)
T1 construct: E. coli LMG194, pBAD/Myc-His A with native stop codon (no tag), ion exchange purified; homodimer 161 kDa; GH2
T1 sequence (D1LZK0 1-731): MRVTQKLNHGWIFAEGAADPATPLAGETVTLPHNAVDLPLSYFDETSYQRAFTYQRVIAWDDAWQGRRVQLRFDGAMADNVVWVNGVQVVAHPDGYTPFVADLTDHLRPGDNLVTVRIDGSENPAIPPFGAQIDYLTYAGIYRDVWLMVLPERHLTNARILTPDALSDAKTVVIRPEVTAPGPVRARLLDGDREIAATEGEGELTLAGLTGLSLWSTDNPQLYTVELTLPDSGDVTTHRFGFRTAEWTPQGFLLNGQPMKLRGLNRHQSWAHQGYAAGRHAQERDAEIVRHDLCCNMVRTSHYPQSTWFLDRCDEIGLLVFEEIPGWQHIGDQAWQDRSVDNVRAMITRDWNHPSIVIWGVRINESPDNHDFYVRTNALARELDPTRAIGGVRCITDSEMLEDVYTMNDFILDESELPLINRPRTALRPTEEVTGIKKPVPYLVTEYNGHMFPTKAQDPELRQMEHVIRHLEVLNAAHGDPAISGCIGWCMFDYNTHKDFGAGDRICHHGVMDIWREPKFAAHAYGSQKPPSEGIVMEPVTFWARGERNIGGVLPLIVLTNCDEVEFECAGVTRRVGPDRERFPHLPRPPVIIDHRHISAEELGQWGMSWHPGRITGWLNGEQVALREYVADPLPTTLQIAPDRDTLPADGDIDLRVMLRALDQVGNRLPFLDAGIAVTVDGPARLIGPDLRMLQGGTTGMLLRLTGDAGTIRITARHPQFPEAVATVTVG
Experiment: relative activity with added sugar
Assay type: biochemical

activity at 100000 µM (read-out: Relative activity (%) / Galactose) [%]	activity at 100000 µM (read-out: Relative activity (%) / Glucose) [%]	SMILES
52 ± 1		OC[C@H]1OC(O)[C@H](O)[C@@H](O)[C@H]1O (some centres unmarked) [galactose]
	38 ± 2	OC[C@H]1OC(O)[C@H](O)[C@@H](O)[C@@H]1O (some centres unmarked) [glucose]
